# The source made the active and inactive calls. No cut-off for these calls is given here.
# Experiments:
# [1] = test system: A-375; experiment: Inhibition of glycolysis in human A-375 cells assessed as reduction in lactate formation at 0.25 to 5 uM incubated for 8 hrs; format: functional, cell-based; conditions: dose 0.25-5 µM
# [2] = test system: A549; experiment: Antiproliferative activity against human A549 cells assessed as inhibition of cell viability incubated for 72 hrs by MTT assay; format: functional, cell-based; conditions: A549, 72 h
# [3] = test system: MCF7; experiment: Antiproliferative activity against human MCF7 cells assessed as inhibition of cell viability incubated for 72 hrs by MTT assay; format: functional, cell-based; conditions: MCF7, 72 h
# [4] = Stability of the compound in Tris-HCL buffer at pH 7.4 measured for 24 hrs by RP-HPLC-UV analysis; format: physicochemical; conditions: pH 7.4, 24 h
# [5] = test system: A-375; experiment: Induction of cell cycle arrest in human A-375 cells assessed as accumulation at G2 phase at 2.5 uM incubated for 24 hrs by PI staining based flow cytometry analysis (reference value: 7.92 %); format: functional
# [6] = test system: A-375; experiment: Inhibition of colony formation in human A-375 cells preincubated for 72 hrs followed by drug free medium addition for 10 to 14 days by crystal violet staining based analysis; format: functional, cell-based; conditions: dose 0.5-1 µM, DDE = dose-dependent effect
# [7] = Toxicity in BALB/c mouse assessed as animal death at 50 to 100 mg/kg, […] measured after 7 days; format: organism-based; conditions: in vivo, 168 h, dose 50-100 mg/kg, time 7 day
# [8] = Toxicity in BALB/c mouse assessed as histopathological changes in kidney at 50 to 100 mg/kg, iv measured after 7 days by H and E staining based assay; format: organism-based; conditions: in vivo, 168 h, dose 50-100 mg/kg, time 7 day
# [9] = test system: A-375; experiment: Cytotoxicity against human A-375 cells assessed as reduction in cell vaibility measured at 72 hrs in presence of BNPP by MTT assay; format: functional, cell-based; conditions: A-375, 72 h
# [10] = test system: A-375; experiment: Cytotoxicity against human A-375 cells assessed as reduction in cell vaibility measured at 48 hrs in presence of BNPP by MTT assay; format: functional, cell-based; conditions: A-375, 48 h
# [11] = Toxicity in BALB/c mouse assessed as histopathological changes in lung at 50 to 100 mg/kg, iv measured after 7 days by H and E staining based assay; format: organism-based; conditions: in vivo, 168 h, dose 50-100 mg/kg, time 7 day
# [12] = test system: A-375; experiment: Induction of mitochondrial membrane depolarization in human A-375 cells assessed as increase in JC-1 monomer incubated for 4 hrs by JC-1 staining based flow cytometry analysis; format: functional, cell-based; conditions: dose 2.5-10 µM, DDE = dose-dependent effect
# [13] = test system: A-375; experiment: Induction of cell cycle arrest in human A-375 cells assessed as accumulation at S phase at 2.5 uM incubated for 24 hrs by PI staining based flow cytometry analysis (reference value: 24.01 %); format: functional
# [14] = biological target: Histone deacetylase (Homo sapiens) (UniProt Q13547+O15379+Q9UBN7+Q92769+Q9UQL6+Q8WUI4+Q9BY41+Q96DB2+P56524+Q9UKV0+Q969S8); experiment: Inhibition of HDAC in human A-375 cells assessed as upregulation of alpha-tubulin acetylation at 5 to 20 uM measured after 24 hrs; format: cell-based; conditions: dose 5-20 µM
# [15] = test system: L02; experiment: Induction of mitochondrial membrane hyperpolarization in human L02 cells assessed as JC-1 level at 2.5 to 10 uM incubated for 4 hrs by JC-1 staining based flow cytometry analysis relative to control; format: functional; conditions: dose 2.5-10 µM
# [16] = test system: A-375; experiment: Induction of cell cycle arrest in human A-375 cells assessed as accumulation at G2 phase at 7.5 uM incubated for 24 hrs by PI staining based flow cytometry analysis (reference value: 7.92 %); format: functional
# [17] = test system: A-375; experiment: Induction of cell cycle arrest in human A-375 cells assessed as accumulation at G1 phase at 7.5 uM incubated for 24 hrs by PI staining based flow cytometry analysis (reference value: 68.07 %); format: functional
# [18] = test system: A-375; experiment: Antitumor activity against human A-375 cells xenografted in nude mouse assessed as tumor inhibition ratio at 40 mg/kg, ip measured once every two days for 14 days; format: functional; conditions: A-375, 336 h, time 14 day, read-out: TGI
# [19] = Toxicity in BALB/c mouse assessed as change in body weight at 100 mg/kg, iv administered for 7 days and measured once per 2 days; format: organism-based; conditions: in vivo, 168 h, time 7 day
# [20] = test system: MDA-MB-231; experiment: Induction of mitochondrial membrane hyperpolarization in human MDA-MB-231 cells assessed as JC-1 level at 2.5 to 10 uM incubated for 4 hrs by JC-1 staining based flow cytometry analysis relative to control; format: functional; conditions: dose 2.5-10 µM
# [21] = test system: A-375; experiment: Antiproliferative activity against human A-375 cells assessed as inhibition of cell viability incubated for 72 hrs by MTT assay; format: functional, cell-based; conditions: A-375, 72 h
# [22] = Apparent permeability across apical to basolateral side in human Caco-2 cells at 2 uM measured after 2 hrs by LC-MS/MS analysis; format: ADME, cell-based
# [23] = Drug uptake in human A-375 cells mitochondria assessed as fold increase at 10 uM measured after 4 hrs relative to PBA; format: ADME; conditions: a-375, 4 h
# [24] = Drug uptake in human A-375 cells measured at 10 mins by RP-HPLC-UV analysis; format: ADME, cell-based; conditions: a-375, 10 min
# [25] = test system: A-375; experiment: Effect on mitochondrial bio-energestics in human A-375 cells assessed as increase in OCR/ECRA ratio at 0.25 to 1 uM measured after 4 hrs; format: functional, cell-based; conditions: dose 0.25-1 µM
# [26] = Toxicity in BALB/c mouse assessed as death of animal at 125 to 200 mg/kg, iv administered for 7 days; format: organism-based; conditions: in vivo, 168 h, dose 125-200 mg/kg, time 7 day
# [27] = test system: A-375; experiment: Inhibition of glycolysis in human A-375 cells assessed as reduction in extracellular acidification rate at 0.25 to 1 uM measured after 4 hrs; format: functional, cell-based; conditions: dose 0.25-1 µM
# [28] = Toxicity in BALB/c mouse assessed as histopathological changes in heart at 50 to 100 mg/kg, iv measured after 7 days by H and E staining based assay; format: organism-based; conditions: in vivo, 168 h, dose 50-100 mg/kg, time 7 day
# [29] = test system: A-375; experiment: Induction of mitochondrial damage in human A-375 cells assessed as decrease in oxygen consumption rate at 5 uM measured after 4 hrs; format: functional, cell-based
# [30] = test system: A-375; experiment: Induction of mitochondrial membrane depolarization in human A-375 cells assessed as increase in JC-1 monomer at 10 uM incubated for 4 hrs by JC-1 staining based flow cytometry analysis; format: functional, cell-based
# [31] = test system: MDA-MB-231; experiment: Antiproliferative activity against human MDA-MB-231 cells assessed as inhibition of cell viability incubated for 72 hrs by MTT assay; format: functional, cell-based; conditions: MDA-MB-231, 72 h
# [32] = test system: HaCaT; experiment: Induction of mitochondrial membrane hyperpolarization in human HaCaT cells assessed as JC-1 level at 2.5 to 10 uM incubated for 4 hrs by JC-1 staining based flow cytometry analysis relative to control; format: functional; conditions: dose 2.5-10 µM
# [33] = test system: A-375; experiment: Induction of cell cycle arrest in human A-375 cells assessed as accumulation at G2 phase at 5 uM incubated for 24 hrs by PI staining based flow cytometry analysis (reference value: 7.92 %); format: functional
# [34] = test system: A-375; experiment: Induction of cell cycle arrest in human A-375 cells assessed as accumulation at S phase at 7.5 uM incubated for 24 hrs by PI staining based flow cytometry analysis (reference value: 24.01 %); format: functional
# [35] = test system: A-375; experiment: Antitumor activity against human A-375 cells xenografted in nude mouse assessed as tumor growth inhibition at 10 to 40 mg/kg, ip and measured once every two days for 14 days; format: functional, organism-based; conditions: dose 10-40 mg/kg, time 14.0 day
smiles,measurement,setting,value
O=C(CCCCCCCCC[P+](c1ccc(C(F)(F)F)cc1)(c1ccc(C(F)(F)F)cc1)c1ccc(C(F)(F)F)cc1)NC(COC(=O)CCCc1ccccc1)(COC(=O)CCCc1ccccc1)COC(=O)CCCc1ccccc1.[Br-],inhibition,[1],Active
same,IC50,[2],4.72 µM
same,IC50,[3],6.02 µM
same,Stability,[4],Stable
same,Activity,[5],8.58%
same,inhibition,[6],Dde
same,Activity,[7],Non-Toxic
same,Activity,[8],Non-Toxic
same,IC50,[9],14.1 µM
same,IC50,[10],18.9 µM
same,Activity,[11],Non-Toxic
same,Activity,[12],Dde
same,Activity,[13],16.71%
same,inhibition,[14],Active
same,Activity,[15],11.49%
same,Activity,[16],7.88%
same,Activity,[17],80.37%
same,inhibition in vivo at 40 mg/kg,[18],76%
same,Activity,[19],Non-Toxic
same,Activity,[20],3.27%
same,IC50,[21],2.22 µM
same,"Papp A→B at 2 h, 2 µM",[22],24.3 ×10⁻⁶ cm/s
same,Drug uptake,[23],Active
same,Drug uptake,[24],Active
same,Activity,[25],Active
same,Activity,[26],Non-Toxic
same,inhibition,[27],Active
same,Activity,[28],Non-Toxic
same,Activity,[29],Active
same,Activity,[30],Active
same,IC50,[31],3.71 µM
same,Activity,[32],12.67%
same,Activity,[33],8.85%
same,Activity,[34],11.75%
same,Activity,[35],Active
